Test: Safety: treatment-related adverse events and dose-limiting toxicities, phase 1 dose escalation
Format: in vivo, human
Excerpt: Example 3 reports Clinical and Genomics Analysis of a single trial. The Study Population in Example 3 was as follows: • Women ≥18 years old with locally advanced or metastatic ER+HER2−BC. • Progression on at least one hormonal therapy and at least one additional therapy/regimen; no maximum number of prior lines of therapy. • ECOG performance status of 0 or 1. • Adequate bone marrow and organ function. • Excluded if had bone-only disease or inflammatory BC.
Methods were used to analyze whether H3B-6545 inactivates both wild-type and mutant ERα by targeting cysteine 530 and enforcing a unique antagonist conformation. Methods: Women with locally advanced or metastatic HR+BC are treated (tx) with H3B-6545 drug product administered once daily orally by capsule over a 28 day cycle after progression on at least one hormonal therapy and at least one additional therapy/regimen. Dose escalation uses a 3+3 design with the option to backfill previously cleared doses and allows for intrapatient dose escalation. This example explored the safety, pharmacokinetics and pharmacodynamics of H3B-6545 in women with HR+BC to identify a recommended subsequent dose for testing.
• H3B-6545 administered once daily orally over a 28 day cycle. • Dose escalation using a standard 3+3 study design using dose cohorts of 100, 200, 300, 450, and 600 mg QD. • Patients allowed to backfill previously cleared doses. • Intra-patient dose escalation allowed after completion of Cycle 3. […]

[1] = 100 mg QD (N = 6), as of Apr. 20, 2019
[2] = 200 mg QD (N = 12), as of Apr. 20, 2019
[3] = 300 mg QD (N = 11), as of Apr. 20, 2019
[4] = 450 mg QD (N = 10), as of Apr. 20, 2019
[5] = 600 mg QD (N = 7), as of Apr. 20, 2019
[6] = Total (N = 46), 100 to 600 mg QD, as of Apr. 20, 2019
[7] = as of Apr. 20, 2019, 100 to 600 mg QD

In the case of `CN(C)C(=O)/C=C/CNCCOc1ccc(/C(=C(/CC(F)(F)F)c2ccccc2)c2ccc3[nH]nc(F)c3c2)cn1` [H3B-6545, (E)-N,N-dimethyl-4-[2-[5-[(Z)-4,4,4-trifluoro-1-(3-fluoro-1H-indazol-5-yl)-2-phenylbut-1-enyl]pyridin-2-yl]oxyethylamino]but-2-enamide], the “Subjects with any TRAE” value [1] is reported as 4, the “TRAE Anaemia, subjects” value [1] is reported as 0 and the “TRAE Aspartate aminotransferase increased, subjects” value [1] is reported as 0. The “TRAE Diarrhoea, subjects” value [1] was 1, the “TRAE Fatigue, subjects” value [1] was 1 and the “TRAE Nausea, subjects” value [1] was 1. For the same molecule, the “TRAE Sinus bradycardia, subjects” value [1] was 0, the “Subjects with any TRAE” value [2] was 6 and the “TRAE Anaemia, subjects” value [2] was 1. The “TRAE Aspartate aminotransferase increased, subjects” value [2] was 1, the “TRAE Diarrhoea, subjects” value [2] was 1 and the “TRAE Fatigue, subjects” value [2] was 2. For the same molecule, the “TRAE Nausea, subjects” value [2] was 0, the “TRAE Sinus bradycardia, subjects” value [2] was 2 and the “Subjects with any TRAE” value [3] was 9. The “TRAE Anaemia, subjects” value [3] was 2, the “TRAE Aspartate aminotransferase increased, subjects” value [3] was 1 and the “TRAE Diarrhoea, subjects” value [3] was 2. The “TRAE Fatigue, subjects” value [3] was 3, the “TRAE Nausea, subjects” value [3] was 3 and the “TRAE Sinus bradycardia, subjects” value [3] was 7. The “Subjects with any TRAE” value [4] was 9, the “TRAE Anaemia, subjects” value [4] was 3 and the “TRAE Aspartate aminotransferase increased, subjects” value [4] was 1. For the same molecule, the “TRAE Diarrhoea, subjects” value [4] was 3, the “TRAE Fatigue, subjects” value [4] was 1 and the “TRAE Nausea, subjects” value [4] was 4. For the same molecule, the “TRAE Sinus bradycardia, subjects” value [4] was 3, the “Subjects with any TRAE” value [5] was 5 and the “TRAE Anaemia, subjects” value [5] was 1. For the same molecule, the “TRAE Aspartate aminotransferase increased, subjects” value [5] was 2, the “TRAE Diarrhoea, subjects” value [5] was 0 and the “TRAE Fatigue, subjects” value [5] was 1. The “TRAE Nausea, subjects” value [5] was 1, the “TRAE Sinus bradycardia, subjects” value [5] was 0 and the “dose-limiting toxicity (DLT)s, number” value (600 mg QD cohort, Grade 3 fatigue and Grade 3 rash morbilliform, as of Apr. 20, 2019) was “Two”. The “sinus bradycardia, dose or concentration dependence” value (46 patients, 100 to 600 mg QD) was “does not appear to be dose- or concentration-dependent”, the “TRAEs ≥Grade 4” value (46 patients, 100 to 600 mg QD, as of Apr. 20, 2019) was “no TRAEs ≥Grade 4” and the “Grade 3 TRAEs, number” value (46 patients, 100 to 600 mg QD, two at 450 mg, four at 600 mg, as of Apr. 20, 2019) was “Six”. For the same molecule, the “Subjects with any TRAE” value [6] was 33, the “TRAE Anaemia, subjects” value [6] was 7 and the “TRAE Aspartate aminotransferase increased, subjects” value [6] was 5. For the same molecule, the “TRAE Diarrhoea, subjects” value [6] was 7, the “TRAE Fatigue, subjects” value [6] was 8 and the “TRAE Nausea, subjects” value [6] was 9. The “TRAE Sinus bradycardia, subjects” value [6] was 12, the dose-limiting toxicities (as of 10 Dec. 2018, 32 patients, 100 to 450 mg/day) was “No dose-limiting toxicities” and the “Grade 3 treatment related adverse events (TRAE), number” value (as of 10 Dec. 2018, 32 patients, 100 to 450 mg/day, lymphocyte count decrease) was “one”. The tolerability (as of 10 Dec. 2018, H3B-6545 drug product) was “well-tolerated up to the 450 mg dose level”, the “grade of TRAEs” value [7] was “Most TRAEs were grade 1 or 2 and manageable” and the tolerated dose [7] was “tolerated up to and including 450 mg QD”.

From patent US12702660B2, “Method for treating cancer with an oral dosage form of an estrogen receptor-alpha inhibitor” (Eisai R&D Management Co., Ltd., priority 2019, dated 2026)
